Laboratory results reported in ChEMBL document CHEMBL4385627, “Rational approaches, design strategies, structure activity relationship and mechanistic insights for therapeutic coumarin hybrids” (Bioorg Med Chem, 2019).
In brackets after ≈: the same amount, converted by molar mass.

Key:
[1] = system: Leishmania major; test: Antileishmanial activity against Leishmania major at 0.1 uM incubated for 72 hrs by MTT assay relative to control; type: functional
[2] = system: Leishmania major; test: Antileishmanial activity against Leishmania major at 100 uM incubated for 72 hrs by MTT assay relative to control; type: functional
[3] = system: Leishmania major; test: Antileishmanial activity against Leishmania major at 1 uM incubated for 72 hrs by MTT assay relative to control; type: functional
[4] = system: Leishmania major; test: Antileishmanial activity against Leishmania major at 10 uM incubated for 72 hrs by MTT assay relative to control; type: functional
[5] = Antioxidant activity assessed as ABTS radical cation scavenging ability
[6] = system: Rattus norvegicus; test: Antiinflammatory activity in Wistar rat assessed as reduction in formalin-induced paw edema volume at 20 mg/kg, po administered 1 hr prior to formalin challenge and measured over 0 to 6 hrs post formalin challenge by plethysmography relative to control; type: functional
[7] = Inhibition of bovine kidney ALR1 using sodium D-glucoronic acid as substrate preincubated for 5 mins followed by NADPH addition and measured after 10 mins by spectrophotometric analysis; set-up: species or system Bos taurus
[8] = Inhibition of calf ALR2 using DL-glyceraldehyde as substrate preincubated for 5 mins followed by NADPH addition and measured after 10 mins by spectrophotometric analysis; set-up: species or system Bos taurus
[9] = system: Staphylococcus aureus; test: Antimicrobial activity against Staphylococcus aureus incubated for 16 hrs by agar-well diffusion method; type: functional
[10] = system: Rattus norvegicus; test: Antitumor activity against NMU challenged Sprague-Dawley rat assessed as tumor volume at 5 mg/kg, po administered once per day for 6 weeks via gavage followed by NMU post challenge for 2 weeks (reference value: 4.8 +/- 0.14 mm3); type: functional
[11] = system: MDA-MB-435; test: Growth inhibition of human MDA-MB-435 cells by SRB assay; type: functional
[12] = system: MCF7; test: Growth inhibition of human MCF7 cells by SRB assay; type: functional
[13] = system: Vero; test: Cytotoxicity against African green monkey Vero cells after 48 hrs by MTT assay; type: cell-based; settings: Chlorocebus sabaeus
[14] = biological target: Alpha glucosidase (Homo sapiens, UniProt O43451+P10253+P14410+Q2M2H8); test: Inhibition of alpha-glucosidase (unknown origin) using p-NPG as substrate preincubated for 5 mins followed by substrate addition and measured after 30 mins by spectrophotometric analysis; type: protein assay
[15] = Inhibition of rat intestinal maltase-glucoamylase using p-nitrophenyl alpha-D-glucoside as substrate preincubated for 5 mins followed by substrate addition and measured after 30 mins by spectrophotometric analysis
[16] = system: A498; test: Growth inhibition of human A498 cells at 10 uM after 48 hrs by SRB assay relative to control; type: functional; settings: A498, 48 h, read-out: GI
[17] = Inhibition of Saccharomyces cerevisiae alpha-glucosidase using p-nitrophenyl-alpha-D-glucopyranoside as substrate preincubated for 10 mins followed by substrate addition and measured after 30 mins by spectrophotometric analysis
[18] = Growth inhibition of BHK21 cells at 1 uM incubated for 48 hrs by SRB assay relative to control; type: cell-based, Mesocricetus auratus, BHK-21; settings: hamster, read-out: GI
[19] = Growth inhibition of BHK21 cells at 100 uM incubated for 48 hrs by SRB assay relative to control; type: cell-based, Mesocricetus auratus, BHK-21; settings: hamster, read-out: GI
[20] = Growth inhibition of BHK21 cells at 0.1 uM incubated for 48 hrs by SRB assay relative to control; type: cell-based, Mesocricetus auratus, BHK-21; settings: hamster, read-out: GI
[21] = Growth inhibition of BHK21 cells at 10 uM incubated for 48 hrs by SRB assay relative to control; type: cell-based, Mesocricetus auratus, BHK-21; settings: hamster, read-out: GI
[22] = Antioxidant activity assessed as superoxide anion radical scavenging activity by cyclic voltammetric analysis; type: functional
[23] = biological target: Acetylcholinesterase (Homo sapiens, UniProt P22303); test: Inhibition of human recombinant AchE using acetylthiocholine iodide as substrate preincubated for 5 mins followed by substrate addition and measured at 2 mins interval by Ellman's method
[24] = system: Spermatozoa; test: Spermicidal activity against human spermatozoa shaken for 10 secs by phase contrast microscopy; type: functional, cell-based
[25] = system: Trichomonas vaginalis; test: Trichomonacidal against metronidazole-susceptible Trichomonas vaginalis after 48 hrs by trypan blue exclusion assay; type: functional, organism-based
[26] = system: HeLa; test: Cytotoxicity against human HeLa cells after 24 hrs by MTT assay; type: cell-based
[27] = system: Lactobacillus jensenii; test: Inhibition of Lactobacillus jensenii ATCC 25258 assessed as reduction in number of cells by measuring turbidity after 24 hrs; type: organism-based; settings: ATCC 25258, 24 h
[28] = biological target: Urease (Canavalia ensiformis, UniProt P07374); test: Inhibition of jack bean urease incubated for 30 mins by indophenol method
[29] = system: MDA-MB-231; test: Cytotoxicity against human MDA-MB-231 cells incubated for 24 hrs by MTT assay; type: functional, cell-based; settings: MDA-MB-231, 24 h
[30] = system: A549; test: Cytotoxicity against human A549 cells incubated for 24 hrs by MTT assay; type: functional, cell-based; settings: A549, 24 h
[31] = system: NCI-H157; test: Growth inhibition of human NCI-H157 cells at 1 uM incubated for 48 hrs by SRB assay relative to control; type: functional; settings: NCI-H157, 48 h, read-out: GI
[32] = system: NCI-H157; test: Growth inhibition of human NCI-H157 cells at 10 uM incubated for 48 hrs by SRB assay relative to control; type: functional; settings: NCI-H157, 48 h, read-out: GI
[33] = system: NCI-H157; test: Growth inhibition of human NCI-H157 cells at 0.1 uM incubated for 48 hrs by SRB assay relative to control; type: functional; settings: NCI-H157, 48 h, read-out: GI
[34] = system: NCI-H157; test: Growth inhibition of human NCI-H157 cells at 100 uM incubated for 48 hrs by SRB assay relative to control; type: functional; settings: NCI-H157, 48 h, read-out: GI
[35] = system: Staphylococcus aureus; test: Antibacterial activity against Staphylococcus aureus MTCC 96 by agar dilution method; type: functional
[36] = system: Candida albicans; test: Antifungal activity against Candida albicans MTCC 227 by agar dilution method; type: functional
[37] = system: Aspergillus clavatus; test: Antifungal activity against Aspergillus clavatus MTCC 1323 by agar dilution method; type: functional
[38] = system: Pseudomonas aeruginosa; test: Antibacterial activity against Pseudomonas aeruginosa MTCC 1688 by agar dilution method; type: functional
[39] = system: Aspergillus niger; test: Antifungal activity against Aspergillus niger MTCC 282 by agar dilution method; type: functional
[40] = system: Escherichia coli; test: Antibacterial activity against Escherichia coli MTCC 443 by agar dilution method; type: functional
[41] = biological target: Cholinesterase (Homo sapiens, UniProt P06276); test: Inhibition of human plasma BuChE using butyrylthiocholine iodide as substrate preincubated for 5 mins followed by substrate addition and measured at 2 mins interval by Ellman's method
[42] = Inhibition of calf intestinal alkaline phosphatase using p-nitrophenyl phosphate as substrate preincubated for 10 mins followed by substrate addition and measured after 30 mins by spectrometry based assay; set-up: species or system Bos taurus
[43] = system: HOP-92; test: Growth inhibition of human HOP92 cells at 10 uM after 48 hrs by SRB assay relative to control; type: functional; settings: HOP-92, 48 h, read-out: GI
[44] = biological target: Amyloid-beta precursor protein (Homo sapiens) (UniProt P05067); test: Inhibition of amyloid beta (1 to 40) (unknown origin) aggregation at 1 uM incubated for 1 hr by thioflavin T fluorescence spectroscopic method relative to control
Amyloid-beta precursor protein (Homo sapiens), sequence (P05067 whole entry): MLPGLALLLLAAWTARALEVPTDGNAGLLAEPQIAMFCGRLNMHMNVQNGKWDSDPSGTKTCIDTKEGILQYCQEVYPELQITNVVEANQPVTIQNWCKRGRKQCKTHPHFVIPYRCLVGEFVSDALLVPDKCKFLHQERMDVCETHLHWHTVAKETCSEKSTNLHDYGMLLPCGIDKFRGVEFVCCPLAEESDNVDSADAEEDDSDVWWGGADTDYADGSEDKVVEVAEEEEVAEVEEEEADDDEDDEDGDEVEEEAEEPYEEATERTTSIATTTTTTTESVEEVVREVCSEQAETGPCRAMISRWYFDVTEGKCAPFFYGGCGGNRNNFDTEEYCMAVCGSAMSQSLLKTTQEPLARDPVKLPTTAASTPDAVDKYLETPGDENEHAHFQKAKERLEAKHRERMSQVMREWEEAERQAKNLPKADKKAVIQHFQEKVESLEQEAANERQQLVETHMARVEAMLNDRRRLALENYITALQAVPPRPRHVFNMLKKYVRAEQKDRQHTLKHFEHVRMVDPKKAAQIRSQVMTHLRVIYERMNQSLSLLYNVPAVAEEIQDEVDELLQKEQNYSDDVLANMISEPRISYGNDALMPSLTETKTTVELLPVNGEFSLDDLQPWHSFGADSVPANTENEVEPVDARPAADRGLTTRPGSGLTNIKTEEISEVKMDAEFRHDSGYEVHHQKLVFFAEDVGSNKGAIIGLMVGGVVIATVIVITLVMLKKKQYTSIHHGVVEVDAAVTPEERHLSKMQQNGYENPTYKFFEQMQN

Acetylcholinesterase, sequence (P22303 whole entry): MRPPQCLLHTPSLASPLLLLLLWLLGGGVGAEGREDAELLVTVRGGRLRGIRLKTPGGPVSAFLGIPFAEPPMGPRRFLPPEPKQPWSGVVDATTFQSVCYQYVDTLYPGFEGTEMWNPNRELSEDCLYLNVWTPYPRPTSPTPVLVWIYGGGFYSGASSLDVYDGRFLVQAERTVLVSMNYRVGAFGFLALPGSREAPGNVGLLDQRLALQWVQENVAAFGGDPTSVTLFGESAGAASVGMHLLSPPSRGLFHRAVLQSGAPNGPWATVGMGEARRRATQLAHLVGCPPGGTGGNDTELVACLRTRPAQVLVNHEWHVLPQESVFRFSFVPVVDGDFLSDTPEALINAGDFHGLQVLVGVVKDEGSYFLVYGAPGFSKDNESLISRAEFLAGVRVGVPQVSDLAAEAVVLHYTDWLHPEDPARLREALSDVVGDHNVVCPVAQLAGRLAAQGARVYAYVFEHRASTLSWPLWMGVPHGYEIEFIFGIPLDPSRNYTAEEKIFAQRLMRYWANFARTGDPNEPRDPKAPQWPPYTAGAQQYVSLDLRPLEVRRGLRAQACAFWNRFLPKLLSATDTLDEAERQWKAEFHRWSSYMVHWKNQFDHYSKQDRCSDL
Cholinesterase, sequence (P06276 whole entry): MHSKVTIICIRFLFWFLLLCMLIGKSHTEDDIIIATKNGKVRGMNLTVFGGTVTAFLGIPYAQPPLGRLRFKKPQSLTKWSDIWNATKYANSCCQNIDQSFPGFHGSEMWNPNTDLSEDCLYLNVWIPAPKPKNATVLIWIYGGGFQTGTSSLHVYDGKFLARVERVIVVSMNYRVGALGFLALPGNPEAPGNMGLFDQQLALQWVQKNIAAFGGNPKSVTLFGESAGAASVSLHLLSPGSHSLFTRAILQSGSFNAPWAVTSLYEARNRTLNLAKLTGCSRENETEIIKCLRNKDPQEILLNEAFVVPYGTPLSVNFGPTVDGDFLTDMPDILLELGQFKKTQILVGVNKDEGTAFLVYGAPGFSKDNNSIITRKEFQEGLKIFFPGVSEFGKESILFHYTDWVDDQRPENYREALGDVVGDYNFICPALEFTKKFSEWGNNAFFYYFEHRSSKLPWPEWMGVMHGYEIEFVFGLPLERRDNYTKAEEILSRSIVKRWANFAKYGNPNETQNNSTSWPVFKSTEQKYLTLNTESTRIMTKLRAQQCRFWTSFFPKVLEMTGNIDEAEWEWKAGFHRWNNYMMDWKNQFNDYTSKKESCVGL
Urease, sequence (P07374 whole entry): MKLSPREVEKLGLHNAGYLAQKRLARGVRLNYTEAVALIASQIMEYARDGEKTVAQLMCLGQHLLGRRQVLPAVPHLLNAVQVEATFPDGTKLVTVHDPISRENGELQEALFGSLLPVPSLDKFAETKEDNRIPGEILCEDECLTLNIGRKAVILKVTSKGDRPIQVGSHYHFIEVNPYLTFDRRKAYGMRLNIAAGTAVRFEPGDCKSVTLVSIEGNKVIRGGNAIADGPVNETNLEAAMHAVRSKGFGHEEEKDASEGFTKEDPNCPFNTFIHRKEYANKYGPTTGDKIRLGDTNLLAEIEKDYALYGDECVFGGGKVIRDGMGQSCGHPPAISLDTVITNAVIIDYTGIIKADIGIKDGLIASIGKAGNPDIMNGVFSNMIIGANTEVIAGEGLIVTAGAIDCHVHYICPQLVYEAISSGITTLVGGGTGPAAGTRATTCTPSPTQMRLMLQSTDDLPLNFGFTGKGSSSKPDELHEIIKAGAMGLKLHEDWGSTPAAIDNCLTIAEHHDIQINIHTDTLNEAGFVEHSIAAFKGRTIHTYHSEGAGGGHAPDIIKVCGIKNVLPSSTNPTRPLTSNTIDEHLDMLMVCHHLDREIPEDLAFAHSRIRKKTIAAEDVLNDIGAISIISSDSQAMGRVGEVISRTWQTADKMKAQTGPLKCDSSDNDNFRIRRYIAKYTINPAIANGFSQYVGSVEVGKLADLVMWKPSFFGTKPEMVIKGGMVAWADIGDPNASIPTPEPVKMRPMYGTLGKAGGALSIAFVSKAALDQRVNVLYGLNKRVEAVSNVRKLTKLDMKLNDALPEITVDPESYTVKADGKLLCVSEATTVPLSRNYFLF

## Cc1cccc(-n2c(-c3cc4ccccc4oc3=O)cs/c2=N/NC(=O)c2cc3ccccc3oc2=O)c1C
[1]
  inhibition at 0.1 µM: 53.9%
[2]
  inhibition at 100 µM: 70.4%
[3]
  inhibition at 1 µM: 60.7%
[4]
  inhibition at 10 µM: 66.2%

## C[C@@H]1[C@H](O)[C@@H](C)/C=C/C=C/C=C/C=C/C=C/C=C/C=C/[C@H](O[C@@H]2O[C@H](C)[C@@H](O)[C@H](N)[C@@H]2O)C[C@@H]2O[C@](O)(C[C@@H](O)C[C@@H](O)[C@H](O)CC[C@@H](O)C[C@@H](O)CC(=O)O[C@H]1C)C[C@H](O)[C@H]2C(=O)O [AMPHOTERICIN B]
[1]
  inhibition at 0.1 µM: 69.9%
[2]
  inhibition at 100 µM: 79.8%
[3]
  inhibition at 1 µM: 74.8%
[4]
  inhibition at 10 µM: 76.3%

## CCOC(=O)C(C)(C)Oc1ccc(C(=O)c2cc3cc([N+](=O)[O-])ccc3oc2=O)cc1
[5]
  IC50: 18.6 µM

## O=c1oc2ccc(Cl)cc2cc1-c1nc2ccccc2[nH]1
[6]
  inhibition in vivo at 20 mg/kg: 46.8%

## C/C(=N\Nc1nc(-c2cc3ccccc3oc2=O)cs1)c1ccc(Br)cc1
[7]
  IC50: 1.71 µM
[8]
  IC50: 0.11 µM

## CC(C)(C)NC(=O)c1c(-c2ccccc2)nc(SCc2cc(=O)oc3ccc4ccccc4c23)[nH]c1=O
[9]
  MIC: 2.5 µg/mL (≈ 4.89 µM)

## O=C(/C=C/c1ccc(OCCN2CCCCC2)cc1)c1cc2ccccc2oc1=O
[10]
  Activity: 3.3 mm3
[11]
  GI50: 75.3 µg/mL (≈ 187 µM)
[12]
  GI50: < 10 µg/mL

## O=Cc1c(-c2cc3cc(Br)ccc3oc2=O)[nH]c2ccccc12
[13]
  IC50: 100 µM

## Cc1ccc(N2C(=O)/C(=C/c3ccc(F)cc3)S/C2=N\NC(=O)c2cc3ccccc3oc2=O)cc1
[14]
  IC50: 0.11 µM
[15]
  IC50: 0.07 µM

## Cc1cc(=O)oc2cc(Oc3nc(-c4ccc(B(O)O)cc4)cn4c(-c5ccc(B(O)O)cc5)cnc34)ccc12
[16]
  inhibition of growth at 10 µM: 90.1%

## O=C(N/N=C/c1cc(Cl)ccc1O)c1nc(-c2cc3ccccc3oc2=O)cs1
[17]
  IC50: 8.23 µM

## Cc1cc(C)cc(-n2c(-c3cc4ccccc4oc3=O)cs/c2=N/NC(=O)c2cc3ccccc3oc2=O)c1
[18]
  inhibition at 48 h, 1 µM: 59.4%
[19]
  inhibition at 48 h, 100 µM: 66.8%
[20]
  inhibition at 48 h, 0.1 µM: 55.5%
[21]
  inhibition at 48 h, 10 µM: 64.2%

## O=C(OCc1cc(=O)oc2c(O)c(O)ccc12)c1cc(O)c(O)c(O)c1
[22]
  IC50: 64 µM

## O=C(Cc1cc(=O)oc2cc(O)ccc12)NCCCNCCNCCCNc1c2c(nc3ccccc13)CCCC2
[23]
  IC50: 0.038 µM

## O=C(c1ccc(O)cc1)C(c1c(O)c2ccccc2oc1=O)N1CCCCC1 (stereo not given)
[24]
  IC50: 500 µM
[25]
  IC50: 29.4 µM
[26]
  IC50: 234 µg/mL (≈ 617 µM)
[27]
  IC50: > 1000 µg/mL

## NC(=S)N1N=C(c2cc3ccccc3oc2=O)CC1c1ccccc1 (stereo not given)
[28]
  IC50: 0.358 µM

## C/C(=N\Nc1nc(-c2cc3ccccc3oc2=O)cs1)c1ccccc1
[7]
  IC50: 2.94 µM
[8]
  IC50: 0.12 µM

## C/C(=N\Nc1nc(-c2cc3ccccc3oc2=O)cs1)c1ccccc1Br
[7]
  IC50: 34.7 µM
[8]
  IC50: 0.16 µM

## O=c1oc2ccc(Br)cc2cc1-c1nc2ccccc2[nH]1
[6]
  inhibition in vivo at 20 mg/kg: 45.5%

## O=C(O)c1cn(C2CC2)c2cc(N3CCNCC3)c(F)cc2c1=O [CIPROFLOXACIN]
[9]
  MIC: 10 µg/mL (≈ 30.2 µM)

## O=c1oc2ccccc2cc1-c1cc(-c2ccc(Cl)cc2)nc(Cc2ccc(F)cc2)n1
[29]
  IC50: 16.5 µM
[30]
  IC50: 2.15 µM

## Cc1ccc(-n2c(-c3cc4ccccc4oc3=O)cs/c2=N/NC(=O)c2cc3ccccc3oc2=O)cc1C
[31]
  inhibition of growth at 1 µM: 53.8%
[32]
  inhibition of growth at 10 µM: 57.3%
[33]
  inhibition of growth at 0.1 µM: 45.5%
[34]
  inhibition of growth at 100 µM: 65%

## O=C(Nc1nc2ccccc2[nH]1)c1cc2ccccc2oc1=O
[6]
  inhibition in vivo at 20 mg/kg: 42.9%

## COc1ccccc1N1C(=O)/C(=C/c2ccc(F)cc2)S/C1=N\NC(=O)c1cc2ccccc2oc1=O
[15]
  IC50: 0.38 µM

## CCOC(=O)C(C)(C)Oc1ccc(C(=O)c2cc3cc(C)ccc3oc2=O)cc1
[5]
  IC50: 8.51 µM

## C/C(=N\NC(=S)Nc1ccc(F)cc1F)c1cc2ccccc2oc1=O
[35]
  MIC: 50 µg/mL (≈ 134 µM)
[36]
  MIC: 100 µg/mL (≈ 268 µM)
[37]
  MIC: 100 µg/mL (≈ 268 µM)
[38]
  MIC: 100 µg/mL (≈ 268 µM)
[39]
  MIC: 100 µg/mL (≈ 268 µM)
[40]
  MIC: 50 µg/mL (≈ 134 µM)

## O=C(N/N=C/c1cc(Cl)cc(Cl)c1O)c1nc(-c2cc3ccccc3oc2=O)cs1
[17]
  IC50: 6.24 µM

## O=C(Cc1cc(=O)oc2cc(O)ccc12)NCCCCCCCNc1c2c(nc3ccccc13)CCCC2
[41]
  IC50: 0.063 to 0.0635 µM

## Cc1ccc(-n2c(-c3cc4ccccc4oc3=O)cs/c2=N/NC(=O)c2cc3ccccc3oc2=O)c(C)c1
[42]
  IC50: 1.38 µM

## Cc1cc(=O)oc2cc(Oc3nc(-c4ccc(B(O)O)s4)cn4c(-c5ccc(B(O)O)s5)cnc34)ccc12
[43]
  inhibition of growth at 10 µM: 92.3%

## O=C(Cc1cc(=O)oc2cc(O)ccc12)NCCCCCCCCNc1c2c(nc3ccccc13)CCCC2
[44]
  inhibition: 82%

## Nc1cc(Cl)ccc1/C(=N/Nc1nc(-c2cc3ccccc3oc2=O)cs1)c1ccccc1
[8]
  IC50: 0.459 µM

## COc1ccc(-c2cc(-c3cc4ccccc4oc3=O)nc(Cc3ccc(F)cc3)n2)cc1
[30]
  IC50: 16.1 µM
